Key:
[1] = Pharmacokinetics of gaboxadol in beagle dogs, IV or PO, with or without co-administered tryptophan; assay type: in vivo; conditions: dog; for bioavailability: Fa (bioavailability)
Protocol: Prior to commencement of the studies the protocols were approved by the Animal Welfare Committee, appointed by the Danish Ministry of Justice and all animal procedures were carried out in compliance with EC Directive 86/609/EEC, the Danish law regulating experiments on animals and NIH Guidelines for the Care and Use of Laboratory Animals. 6 full-grown male beagle dogs (body weight 15.9-21.7 kg) were selected and allocated into a roman quadrant design and assigned to receive all 6 formulations of gaboxadol hydrochloride randomly during 6 weeks. The dogs were fasted 20-24 hours before the initiation of the experiment and fed again 10 hours after the administration. The gaboxadol dose was given either as an intravenous injection (1.0 ml/kg) or as an oral solution given by gavage (5.0 ml/kg) directly into the stomach using a soft tube. All dogs received 2.5 mg/kg gaboxadol. In addition to gaboxadol, the oral formulations contained 0, 2.5, 10.0, 50.0 or 150.0 mg/kg of tryptophan to ensure simultaneous co-administration of the two compounds. All solutions were adjusted to a pH of 5.2 and osmolarity was checked with a Vapro vapour pressure osmometer (model 5520, Wescor Inc. Logan, Utah, USA), the intravenous solutions were adjusted to isoosmolarity with glucose. Blood samples of 2.0 ml were taken from the vena cephalica by individual vein puncture and collected into Eppendorf tubes containing 200 IE heparin as anticoagulant. Samples were collected before administration of gaboxadol and after 5, 15, 30, 60, 90 minutes and 2, 3, 4, 6, 8 and 10 hours after gaboxadol administration. The plasma was harvested immediately by centrifugation for 15 minutes at 2200 g and 4-8° C. and stored at −80° C. until further analysis. After each day of gaboxadol dosing the animals had 6 days of washout.
(§1) The pharmacokinetics (PK) was evaluated in WinNonlin. Plasma concentrations curves of the animals dosed intravenously were fitted to a 2-compartment model whereas the data from animals dosed orally were analysed in a non-compartment model. Statistical analysis was done in Sigma Stat.
Gaboxadol was extracted from plasma and HBSS^+ samples by liquid extraction. 100 μl HBSS^+ (80 μl purified water were added to the 20 μl samples) or 100 μl plasma samples were mixed with 25 μl intern standard (d4-gaboxadol) and 25 μl purified water. Protein precipitation was carried out by addition of 400 μl cold acetonitrile. After centrifugation at 10,000 g in 15 minutes, 425 μl supernatant was transferred to glass tubes and evaporated to dryness under nitrogen at 45° C. The samples were re-solved in 80 μl methanol/acetonitrile (30:70), whirl mixed for 10 minutes and centrifuged in 3 minutes at 3000 rpm, before transferal to medium well plates and placed at 10° C. in the autosampler. Gaboxadol concentration in the extracted samples was subsequently quantified by hydrophilic interaction chromatography (HILIC-chromatography) followed by MS/MS detection. The LC system comprised of an Agilent 1100 series pump and degasser, a CTC Analytics interface transferred data to the computer and a Peltier Thermostat and HTC Pal autosampler handled the samples. An Asahipak amino column, (NH2P-50, 150×2 mm) from Phenomenex was used for the chromatographic separation with a mobile phase of 20.0 mM ammoniumacetat pH=4:acetonitrile (30:70) and a flow rate of 0.2 ml/min. 20 μL samples were injected onto the column, which was kept at room temperature. The total runtime was 10 minutes with the first 5 minutes of elution let to waste. The elution time of gaboxadol on the column was approximately 8 minutes. The MS/MS system used consisted of a Sciex API 4000 MS/MS detector with a Turbo Ion Spray and Turbo V source (Applied Biosystems). The detection was performed in negative ionization mode where gaboxadol (precursor 139.1 Da, product 110.1 Da) and d4-gaboxadol (precursor 143.0, product 112.2 Da) were measured by multiple-reaction-monitoring (MRM). […]

[2] = Pharmacokinetics of gaboxadol in rats after IV dosing, with or without 5-HTP pre-incubation; assay type: in vivo, Sprague-Dawley rats; conditions: rat; for Ke ± S.E.M.: IV gaboxadol 2.5 mg/kg
Protocol: as §1
(§2) Gaboxadol was extracted from plasma and HBSS^+ samples by liquid extraction. 100 μl HBSS^+ (80 μl purified water were added to the 20 μl samples) or 100 μl plasma samples were mixed with 25 μl intern standard (d4-gaboxadol) and 25 μl purified water. Protein precipitation was carried out by addition of 400 μl cold acetonitrile. After centrifugation at 10,000 g in 15 minutes, 425 μl supernatant was transferred to glass tubes and evaporated to dryness under nitrogen at 45° C. The samples were re-solved in 80 μl methanol/acetonitrile (30:70), whirl mixed for 10 minutes and centrifuged in 3 minutes at 3000 rpm, before transferal to medium well plates and placed at 10° C. in the autosampler. Gaboxadol concentration in the extracted samples was subsequently quantified by hydrophilic interaction chromatography (HILIC-chromatography) followed by MS/MS detection. The LC system comprised of an Agilent 1100 series pump and degasser, a CTC Analytics interface transferred data to the computer and a Peltier Thermostat and HTC Pal autosampler handled the samples. An Asahipak amino column, (NH2P-50, 150×2 mm) from Phenomenex was used for the chromatographic separation with a mobile phase of 20.0 mM ammoniumacetat pH=4:acetonitrile (30:70) and a flow rate of 0.2 ml/min. 20 μL samples were injected onto the column, which was kept at room temperature. The total runtime was 10 minutes with the first 5 minutes of elution let to waste. The elution time of gaboxadol on the column was approximately 8 minutes. The MS/MS system used consisted of a Sciex API 4000 MS/MS detector with a Turbo Ion Spray and Turbo V source (Applied Biosystems). The detection was performed in negative ionization mode where gaboxadol (precursor 139.1 Da, product 110.1 Da) and d4-gaboxadol (precursor 143.0, product 112.2 Da) were measured by multiple-reaction-monitoring (MRM). The signals were linear between 0.5 and 2500.0 ng/ml and the limit of quantification by this procedure was 0.5 ng/ml. The software was from Analyst™ (Applied Biosystem, version 4.0).
(§3) Male Sprague-Dawley rats (Charles River Laboratories, Wilmington, Mass., USA) of 220-240 gram were housed and acclimated for 7 days before entering the experiments. The rats were maintained on standard food and water until 16-20 hours prior to dosing when food was retrieved to insure complete gastric emptying before experiments were conducted. Water was available to the animals until beginning of experiment and again 2 hours after. Each animal was randomly assigned to receive either one of the intravenous or oral formulations.
(§4) Blood samples of 0.2 ml were taken from the tail vein by individual vein puncture and collected into plasma collection tubes containing 20 IE heparin. Samples were collected at 5, 15, 30, 45, 60 minutes and after 2, 3, 4, 6, 8 hours after gaboxadol administration. The plasma was harvested immediately by centrifugation for 10 min. at 3.600 g and stored at −80° C. until further analysis.
0.25 mg gaboxadol as well as 0.0 or 10.0 mg 5-HTP was dissolved in purified water pr ml. at room temperature and placed on ice in ultrasound for 10 min. The solutions of gaboxadol used for intravenous injection was filtered through a 0.45 μm filter.
Animals were administered with 100.0 mg/kg 5-HTP or saline by oral gavage 30 min. prior to intravenous injection of 2.5 mg/kg gaboxadol into the tail vein […].

[3] = Pharmacokinetics of gaboxadol in rats after PO dosing, with or without 5-HTP pre-incubation; assay type: in vivo, Sprague-Dawley rats; conditions: rat; for Cmax: Cmax ± S.E.M.; for Tmax: Tmax ± S.E.M.
Protocol: as §1, §2
0.05 or 0.5 mg gaboxadol as well as 0.0 or 20.0 mg 5-HTP was dissolved in purified water pr ml. at room temperature and placed on ice in ultrasound for 10 min. The formulations were adjusted to pH 4-5 and with NaOH/HCl and made isotonic by addition of mannitol. pH of all solutions was adjusted to pH above 4.0 and below 5.0, the osmolality was adjusted with mannitol to 280 mmol/kg.
as §3
6 parallel groups of rats (n=6) were given isotonic solutions of 0.5 or 5.0 mg/kg of gaboxadol together with saline or 200.0 mg/kg 5-HTP, by oral gavage (10.0 ml/kg). The suspensions of 5-HTP were given as a pre-incubation 30 min. prior to the gaboxadol solutions.
as §4

[4] = male, beagle, in vivo, po, 2.5 mg/kg
[5] = male, beagle, in vivo, po, 10 mg/kg
[6] = male, beagle, in vivo, po, 50 mg/kg
[7] = male, beagle, in vivo, po, 150 mg/kg
[8] = male, Sprague-Dawley, in vivo, iv, 2.5 mg/kg
[9] = male, Sprague-Dawley, in vivo, po
[10] = male, Sprague-Dawley, in vivo, po, 0.5 mg/kg
[11] = male, Sprague-Dawley, in vivo, po, 5 mg/kg

SMILES: Oc1noc2c1CCNC2 [gaboxadol, 4,5,6,7-tetrahydroisoxazolo [5,4-c]pyridine-3-ol]
- decrease of maximal gaboxadol plasma concentration, Cmax, by tryptophan coadministration ([1]; PO 2.5 mg/kg gaboxadol, presence vs absence of 150 mg/kg tryptophan, p<0.001): 57%
- ke ([1]; group A, IV 2.5 mg gaboxadol/kg, tryptophan 0 mg/kg): 1.02 ± 0.14 h⁻¹
- ke ([1]; group B, PO 2.5 mg gaboxadol/kg, tryptophan 0 mg/kg): 0.46 ± 0.02 h⁻¹
- ke ([1]; group C, PO 2.5 mg gaboxadol/kg, tryptophan 2.5 mg/kg): 0.50 ± 0.03 h⁻¹
- ke ([1]; group D, PO 2.5 mg gaboxadol/kg, tryptophan 10 mg/kg): 0.44 ± 0.03 h⁻¹
- ke ([1]; group E, PO 2.5 mg gaboxadol/kg, tryptophan 50 mg/kg): 0.50 ± 0.03 h⁻¹
- ke ([1]; group F, PO 2.5 mg gaboxadol/kg, tryptophan 150 mg/kg): 0.48 ± 0.07 h⁻¹
- effect of tryptophan coadministration on elimination rate constants (ke) and clearance (CL) of gaboxadol ([1]; in vivo, po): did not change
- clearance ([1]; male, beagle, in vivo, iv, 2.5 mg/kg): 7.6 mL/min/kg
- AUC ([1]; male, beagle, in vivo, iv, 2.5 mg/kg, AUC): 5620 ± 377 ng·h/mL
- Cmax ([1]; male, beagle, in vivo, iv, 2.5 mg/kg, Cmax): 5490 ± 404 ng/mL
- AUC [1, 4]: 4760 ± 350 ng·h/mL
- Cmax [1, 4]: 2473 ± 178 ng/mL
- Fa (bioavailability) [1, 4]: 86.1%
- Tmax [1, 4]: 21 ± 7.8 min
- AUC ([1]; male, beagle, in vivo, po, 2.5 mg/kg, AUC): 4720 ± 248 ng·h/mL
- Cmax ([1]; male, beagle, in vivo, po, 2.5 mg/kg, Cmax): 2500 ng/mL
- bioavailability [1, 4]: 85.3 ± 5.7%
- Tmax ([1]; male, beagle, in vivo, po, 2.5 mg/kg, Tmax): 27.6 min
- CL [1, 5]: 645 ± 59 mL/h/kg
- AUC ([1]; male, beagle, in vivo, po, 10 mg/kg, AUC): 4030 ± 339 ng·h/mL
- Cmax ([1]; male, beagle, in vivo, po, 10 mg/kg, Cmax): 1870 ± 114 ng/mL
- bioavailability [1, 5]: 75%
- Tmax ([1]; male, beagle, in vivo, po, 10 mg/kg, Tmax): 32.4 ± 9 min
- CL [1, 6]: 589 ± 26 mL/h/kg
- AUC ([1]; male, beagle, in vivo, po, 50 mg/kg, AUC): 4290 ± 211 ng·h/mL
- Cmax ([1]; male, beagle, in vivo, po, 50 mg/kg, Cmax): 1660 ± 37 ng/mL
- bioavailability [1, 6]: 78.2 ± 6.3%
- Tmax ([1]; male, beagle, in vivo, po, 50 mg/kg, Tmax): 27.6 ± 7.2 min
- CL [1, 7]: 700 ± 152 mL/h/kg
- AUC ([1]; male, beagle, in vivo, po, 150 mg/kg, AUC): 4400 ± 801 ng·h/mL
- Cmax ([1]; male, beagle, in vivo, po, 150 mg/kg, Cmax): 1420 ng/mL
- bioavailability [1, 7]: 79.7 ± 14.5%
- Tmax ([1]; male, beagle, in vivo, po, 150 mg/kg, Tmax): 90 min
- Cmax ± S.E.M. [2, 8]: 4109 ± 302.6 ng/mL
- T1/2 [2, 8]: 44 min
- Tmax [2, 8]: 5 min
- Tmax ± S.E.M. [2, 8]: 5 ± 0.0 min
- Cmax ([2]; male, Sprague-Dawley, in vivo, iv, 2.5 mg/kg, Cmax ± S.E.M.): 2850 ± 312 ng/mL
- half-life ([2]; male, Sprague-Dawley, in vivo, iv, 2.5 mg/kg, T1/2): 26 min
- AUC-dose-linearity: AUC of group G relative to group K ([2]; in vivo): five times
- AUC of group K relative to group L ([2]; in vivo, iv, 2.5 mg/kg): ~3 times
- Ke ± S.E.M. ([2]; treatment K, no 5-HTP): 0.0266 ± 0.0008 min⁻¹
- Ke ± S.E.M. ([2]; treatment L, 5-HTP 100 mg/kg by oral gavage 30 min prior): 0.0181 ± 0.0030 min⁻¹
- Tmax ± S.E.M. [3, 9]: 43 min
- Cmax ± S.E.M. [3, 10]: 294 ± 39.4 ng/mL
- Cmax [3, 10]: 273 ± 26.7 ng/mL
- Tmax [3, 10]: 16 min
- Cmax ± S.E.M. [3, 11]: 1854 ± 509.4 ng/mL
- Cmax [3, 11]: 2060 ± 153 ng/mL
- Tmax [3, 11]: 20 min
- Tmax [3, 9]: 63 min
- AUC increase compared to the control group ([3]; PO gaboxadol 0.5 mg/kg with 5-HTP 200 mg/kg vs without): 540%
- AUC increase compared to the control group ([3]; PO gaboxadol 5.0 mg/kg with 5-HTP 200 mg/kg vs without): 330%
- gaboxadol elimination rate constant when 5-HTP was present, relative to control ([3]; PO gaboxadol, 5-HTP 200 mg/kg): about 25%
- AUC-dose-linearity: AUC of group J relative to group G ([3]; in vivo, 5 mg/kg): ~10 times
- Ke ± S.E.M. ([3]; treatment G, PO gaboxadol 0.5 mg/kg, no 5-HTP): 0.0164 ± 0.0021 min⁻¹
- Ke ± S.E.M. ([3]; treatment H, PO gaboxadol 0.5 mg/kg, 5-HTP 200.0 mg/kg 30 min before): 0.0038 ± 0.0004 min⁻¹
- Ke ± S.E.M. ([3]; treatment I, PO gaboxadol 5.0 mg/kg, no 5-HTP): 0.0199 ± 0.0017 min⁻¹
- Ke ± S.E.M. ([3]; treatment J, PO gaboxadol 5.0 mg/kg, 5-HTP 200.0 mg/kg 30 min before): 0.0058 ± 0.0008 min⁻¹
